# Results reported in the supplement of paper PMC4862054.
# Legend:
# Settings in all cases: incubation time: 72 h
# [1] = tested on: HCC1143; test: normalised response (% of control), CellTox Green; higher = less cell death (100 = DMSO, 0 = benzethonium chloride kill control)
# Summary of the method: (§1)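 For each plate, 0.1 % DMSO was set to 100 and a positive kill control to 0. Breast cancer cell lines (20 µl suspension) were seeded into 384-well plates already holding compound at 5 concentrations in 10-fold steps over a 10,000-fold range chosen per compound, and incubated for 72 h. CellTox Green fluorescence at 485/520 nm was read before CellTiter-Glo luminescence, which followed 10 min at room temperature. Each value is the normalised signal at one concentration.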
# [2] = tested on: DU-4475; test: as above
# Summary of the method: as §1
# [3] = tested on: BT-474; test: as above
# Summary of the method: as §1
# [4] = tested on: MDA-MB-436; test: as above
# Summary of the method: as §1
# [5] = tested on: CAL-148; test: as above
# Summary of the method: as §1
# [6] = tested on: MCF-10A; test: as above
# Summary of the method: as §1
# [7] = tested on: MDA-MB-453; test: as above
# Summary of the method: as §1
# [8] = tested on: CAL-85-1; test: as above
# Summary of the method: as §1
# [9] = tested on: MDA-MB-231; test: as above
# Summary of the method: as §1
# [10] = tested on: MDA-MB-468; test: as above
# Summary of the method: as §1
# [11] = tested on: BT-549; test: as above
# Summary of the method: as §1
# [12] = tested on: Hs578T; test: as above
# Summary of the method: as §1
# [13] = tested on: CAL-120; test: as above
# Summary of the method: as §1
# [14] = tested on: HCC1599; test: as above
# Summary of the method: as §1
# [15] = tested on: HDQ-P1; test: as above
# Summary of the method: as §1
# [16] = tested on: HCC1937; test: as above
# Summary of the method: as §1
# [17] = tested on: CAL-51; test: as above
# Summary of the method: as §1
# [18] = tested on: MFM-223; test: as above
# Summary of the method: as §1
# [19] = tested on: HCC1143; test: normalised response (% of control), CellTiter-Glo; higher = more viable cells (100 = DMSO, 0 = benzethonium chloride kill control)
# Summary of the method: as §1
# [20] = tested on: DU-4475; test: as above
# Summary of the method: as §1
# [21] = tested on: BT-474; test: as above
# Summary of the method: as §1
# [22] = tested on: MDA-MB-436; test: as above
# Summary of the method: as §1
# [23] = tested on: CAL-148; test: as above
# Summary of the method: as §1
# [24] = tested on: MCF-10A; test: as above
# Summary of the method: as §1
# [25] = tested on: MDA-MB-453; test: as above
# Summary of the method: as §1
# [26] = tested on: CAL-85-1; test: as above
# Summary of the method: as §1
# [27] = tested on: MDA-MB-231; test: as above
# Summary of the method: as §1
# [28] = tested on: MDA-MB-468; test: as above
# Summary of the method: as §1
# [29] = tested on: BT-549; test: as above
# Summary of the method: as §1
# [30] = tested on: SK-BR-3; test: as above
# Summary of the method: as §1
# [31] = tested on: Hs578T; test: as above
# Summary of the method: as §1
# [32] = tested on: CAL-120; test: as above
# Summary of the method: as §1
# [33] = tested on: HCC1599; test: as above
# Summary of the method: as §1
# [34] = tested on: HDQ-P1; test: as above
# Summary of the method: as §1
# [35] = tested on: HCC1937; test: as above
# Summary of the method: as §1
# [36] = tested on: CAL-51; test: as above
# Summary of the method: as §1
# [37] = tested on: MFM-223; test: as above
# Summary of the method: as §1
structure (smiles),measurement,setting,value
CC[C@]1(O)C[C@H]2CN(CCc3c([nH]c4ccccc34)[C@@](C(=O)OC)(c3cc4c(cc3OC)N(C=O)[C@H]3[C@@](O)(C(=O)OC)[C@H](OC(C)=O)[C@]5(CC)C=CCN6CC[C@]43[C@@H]65)C2)C1 [Vincristine] (1000 nM),normalised response,[1],75.8%
same,normalised response,[2],95.8%
same,normalised response,[3],78.7%
same,normalised response,[4],72.1%
same,normalised response,[5],86.8%
same,normalised response,[6],56.6%
same,normalised response,[7],82.2%
same,normalised response,[8],54.1%
same,normalised response,[9],45.3%
same,normalised response,[10],-25.1%
same,normalised response,[11],73.4%
same,normalised response,[12],33.5%
same,normalised response,[13],85%
same,normalised response,[14],69.7%
same,normalised response,[15],99.3%
same,normalised response,[16],102%
same,normalised response,[17],29.8%
same,normalised response,[18],65.1%
same,normalised response,[19],55.3%
same,normalised response,[20],42.5%
same,normalised response,[21],53.5%
same,normalised response,[22],28.8%
same,normalised response,[23],59.3%
same,normalised response,[24],68.1%
same,normalised response,[25],63.8%
same,normalised response,[26],50.1%
same,normalised response,[27],48.4%
same,normalised response,[28],38.2%
same,normalised response,[29],38%
same,normalised response,[30],18.5%
same,normalised response,[31],25%
same,normalised response,[32],62.2%
same,normalised response,[33],12.2%
same,normalised response,[34],71.5%
same,normalised response,[35],73.2%
same,normalised response,[36],23.8%
same,normalised response,[37],44.2%
